Values of other authors, collected in US20050090549A1, “Intrathecal gabapentin for treatment of pain” (Medtronic, Inc., priority 2003, published 2005).

Conditions: in water and in both basic and acidic aqueous solutions

NCC1(CC(=O)O)CCCCC1 [1-(aminomethyl)cyclohexane acetic acid]
solubility: freely soluble
